Laboratory results published in BigSolDB 2.1.

Q: Which results are given for `C=C[C@]1(C)C[C@@H](OC(=O)CSCCN(CC)CC)[C@]2(C)[C@H](C)CC[C@]3(CCC(=O)[C@H]32)[C@@H](C)[C@@H]1O.O=C(O)/C=C/C(=O)O`?
A: solubility (mole fraction) (in MIBK, 283.15 K): 0.000867; solubility (mole fraction) (in MIBK, 293.15 K): 0.00108; solubility (mole fraction) (in MIBK, 303.15 K): 0.00134; solubility (mole fraction) (in MIBK, 313.15 K): 0.00191; solubility (mole fraction) (in MIBK, 323.15 K): 0.00254; solubility (mole fraction) (in acetone, 283.15 K): 0.00132; solubility (mole fraction) (in acetone, 293.15 K): 0.00257; solubility (mole fraction) (in acetone, 303.15 K): 0.00377; solubility (mole fraction) (in acetone, 313.15 K): 0.00574; solubility (mole fraction) (in acetone, 323.15 K): 0.00861; solubility (mole fraction) (in acetonitrile, 283.15 K): 8.33e-05; solubility (mole fraction) (in acetonitrile, 293.15 K): 0.00016; solubility (mole fraction) (in acetonitrile, 303.15 K): 0.000235; solubility (mole fraction) (in acetonitrile, 313.15 K): 0.000495; solubility (mole fraction) (in acetonitrile, 323.15 K): 0.000993; solubility (mole fraction) (in ethyl acetate, 283.15 K): 0.000525; solubility (mole fraction) (in ethyl acetate, 293.15 K): 0.000719; solubility (mole fraction) (in ethyl acetate, 303.15 K): 0.00102; solubility (mole fraction) (in ethyl acetate, 313.15 K): 0.00147; solubility (mole fraction) (in ethyl acetate, 323.15 K): 0.00215; solubility (mole fraction) (in isobutyl acetate, 283.15 K): 0.000437; solubility (mole fraction) (in isobutyl acetate, 293.15 K): 0.000574; solubility (mole fraction) (in isobutyl acetate, 303.15 K): 0.000744; solubility (mole fraction) (in isobutyl acetate, 313.15 K): 0.00103; solubility (mole fraction) (in isobutyl acetate, 323.15 K): 0.00143; solubility (mole fraction) (in isopropanol, 283.15 K): 0.00103; solubility (mole fraction) (in isopropanol, 293.15 K): 0.00124; solubility (mole fraction) (in isopropanol, 303.15 K): 0.00173; solubility (mole fraction) (in isopropanol, 313.15 K): 0.00288; solubility (mole fraction) (in isopropanol, 323.15 K): 0.00466; solubility (mole fraction) (in isopropyl acetate, 283.15 K): 0.00044; solubility (mole fraction) (in isopropyl acetate, 293.15 K): 0.00061; solubility (mole fraction) (in isopropyl acetate, 303.15 K): 0.000823; solubility (mole fraction) (in isopropyl acetate, 313.15 K): 0.00118; solubility (mole fraction) (in isopropyl acetate, 323.15 K): 0.00163; solubility (mole fraction) (in methyl acetate, 283.15 K): 0.000372; solubility (mole fraction) (in methyl acetate, 293.15 K): 0.000443; solubility (mole fraction) (in methyl acetate, 303.15 K): 0.000624; solubility (mole fraction) (in methyl acetate, 313.15 K): 0.000964; solubility (mole fraction) (in methyl acetate, 323.15 K): 0.00142; solubility (mole fraction) (in n-butanol, 283.15 K): 0.00276; solubility (mole fraction) (in n-butanol, 293.15 K): 0.00458; solubility (mole fraction) (in n-butanol, 303.15 K): 0.00596; solubility (mole fraction) (in n-butanol, 313.15 K): 0.00962; solubility (mole fraction) (in n-butanol, 323.15 K): 0.0173; solubility (mole fraction) (in n-butyl acetate, 283.15 K): 0.000517; solubility (mole fraction) (in n-butyl acetate, 293.15 K): 0.000712; solubility (mole fraction) (in n-butyl acetate, 303.15 K): 0.001; solubility (mole fraction) (in n-butyl acetate, 313.15 K): 0.0013; solubility (mole fraction) (in n-butyl acetate, 323.15 K): 0.00168; solubility (mole fraction) (in toluene, 283.15 K): 5.73e-05; solubility (mole fraction) (in toluene, 293.15 K): 9.62e-05; solubility (mole fraction) (in toluene, 303.15 K): 0.000174; solubility (mole fraction) (in toluene, 313.15 K): 0.000274; solubility (mole fraction) (in toluene, 323.15 K): 0.000537
